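Each compound was tested at five concentrations against cells in 96-well plates for 48 hours. The concentration for 50% growth inhibition is given as GI50.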 Calls of active or inactive are those of the source. Rule as the data show it: active = GI50 up to about 1.1 µM and inactive = higher.
Experiments:
Assay in all cases: DTP human tumour cell line panel, 48 h
[1] = system: RPMI-8226
[2] = system: IGROV-1
[3] = system: DU-145
[4] = system: T47D
[5] = system: 786-0
[6] = system: U-251
[7] = system: HCC 2998
[8] = system: ACHN
[9] = system: SF-268
[10] = system: SK-MEL-28
[11] = system: A549
[12] = system: OVCAR-5
[13] = system: CAKI-1
[14] = system: HCT-15
[15] = system: SNB-75
[16] = system: HCT-116
[17] = system: HOP-92
[18] = system: SR
[19] = system: NCI-H23
[20] = system: SN12C
[21] = system: RXF 393
[22] = system: OVCAR-8
[23] = system: SW-620
[24] = system: OVCAR-4
[25] = system: A498
[26] = system: SK-MEL-5
[27] = system: UACC-257
[28] = system: EKVX
[29] = system: SK-OV-3
[30] = system: UO-31
[31] = system: HT-29
[32] = system: CCRF-CEM
[33] = system: NCI-H522
[34] = system: SF-295
[35] = system: OVCAR-3
[36] = system: Hs-578T
[37] = system: MDA-MB-435
[38] = system: UACC-62
[39] = system: K562
[40] = system: NCI-H460
[41] = system: SNB-19
[42] = system: NCI/ADR-RES
[43] = system: NCI-H226
[44] = system: HL-60
[45] = system: MOLT-4
[46] = system: MDA-MB-231
[47] = system: HOP-62
[48] = system: Malme-3M
[49] = system: SK-MEL-2
[50] = system: MDA-N
[51] = system: SF-539
[52] = system: COLO 205
[53] = system: PC-3
[54] = system: M14
[55] = system: MCF7
[56] = system: LOX IMVI
[57] = system: KM12
[58] = system: TK-10

**Q.** What does the source list for NC1CCCCC1.O=C(CP(=O)(O)O)NC(CC(=O)OCc1ccccc1)C(=O)OCc1ccccc1 (stereo not given)?
**A.** GI50 [1]: > 100 µM (inactive); GI50 [2]: > 100 µM (inactive); GI50 [3]: > 100 µM (inactive); GI50 [4]: > 100 µM (inactive); GI50 [5]: > 100 µM (inactive); GI50 [6]: > 100 µM (inactive); GI50 [7]: > 100 µM (inactive); GI50 [8]: > 100 µM (inactive); GI50 [9]: > 100 µM (inactive); GI50 [10]: > 100 µM (inactive); GI50 [11]: > 100 µM (inactive); GI50 [12]: > 100 µM (inactive); GI50 [13]: > 100 µM (inactive); GI50 [14]: > 100 µM; GI50 [15]: 4.1 µM (inactive); GI50 [16]: > 100 µM (inactive); GI50 [17]: > 100 µM (inactive); GI50 [18]: > 100 µM (inactive); GI50 [19]: > 100 µM (inactive); GI50 [20]: > 100 µM (inactive); GI50 [21]: > 100 µM (inactive); GI50 [22]: > 100 µM (inactive); GI50 [23]: > 100 µM (inactive); GI50 [24]: > 100 µM (inactive); GI50 [25]: > 100 µM (inactive); GI50 [26]: > 100 µM (inactive); GI50 [27]: > 100 µM (inactive); GI50 [28]: > 100 µM (inactive); GI50 [29]: > 100 µM (inactive); GI50 [30]: > 100 µM (inactive); GI50 [31]: > 100 µM (inactive); GI50 [32]: > 100 µM (inactive); GI50 [33]: > 100 µM (inactive); GI50 [34]: > 100 µM (inactive); GI50 [35]: > 100 µM (inactive); GI50 [36]: > 100 µM (inactive); GI50 [37]: > 100 µM (inactive); GI50 [38]: > 100 µM (inactive); GI50 [39]: > 100 µM (inactive); GI50 [40]: > 100 µM (inactive); GI50 [41]: > 100 µM (inactive); GI50 [42]: > 100 µM (inactive); GI50 [43]: > 100 µM (inactive); GI50 [44]: > 100 µM (inactive); GI50 [45]: > 100 µM (inactive); GI50 [46]: > 100 µM (inactive); GI50 [47]: > 100 µM (inactive); GI50 [48]: > 100 µM (inactive); GI50 [49]: 4.85 µM (inactive); GI50 [50]: > 100 µM (inactive); GI50 [51]: > 100 µM (inactive); GI50 [52]: > 100 µM (inactive); GI50 [53]: 24.2 µM (inactive); GI50 [54]: > 100 µM (inactive)

**Q.** Which results are given for Oc1ccc2ccccc2c1CCc1c(O)ccc2ccccc12?
**A.** GI50 [1]: 7.01 µM (inactive); GI50 [55]: 12.7 µM (inactive); GI50 [4]: 2.44 µM (inactive); GI50 [5]: 16.2 µM (inactive); GI50 [6]: 13.3 µM (inactive); GI50 [56]: 14.3 µM (inactive); GI50 [7]: 3.81 µM (inactive); GI50 [8]: 16.4 µM (inactive); GI50 [9]: 11 µM (inactive); GI50 [10]: 10.6 µM (inactive); GI50 [11]: 11.7 µM (inactive); GI50 [12]: 14.1 µM (inactive); GI50 [13]: 7.45 µM (inactive); GI50 [14]: 14.4 µM; GI50 [15]: 3.66 µM (inactive); GI50 [16]: 12.6 µM (inactive); GI50 [17]: 11 µM (inactive); GI50 [18]: 12 µM (inactive); GI50 [19]: 11.8 µM (inactive); GI50 [20]: 11.2 µM (inactive); GI50 [57]: 11.8 µM (inactive); GI50 [21]: 11.7 µM (inactive); GI50 [22]: 14.5 µM (inactive); GI50 [23]: 14.2 µM (inactive); GI50 [25]: 18.5 µM (inactive); GI50 [58]: 18.6 µM (inactive); GI50 [26]: 12.6 µM (inactive); GI50 [27]: 13.9 µM (inactive); GI50 [28]: 13.4 µM (inactive); GI50 [29]: 15.8 µM (inactive); GI50 [31]: 4.41 µM (inactive); GI50 [32]: 11.9 µM (inactive); GI50 [34]: 11.7 µM (inactive); GI50 [35]: 4.42 µM (inactive); GI50 [36]: 16.2 µM (inactive); GI50 [37]: 12.8 µM (inactive); GI50 [38]: 9.29 µM (inactive); GI50 [39]: 7.55 µM (inactive); GI50 [40]: 10.4 µM (inactive); GI50 [41]: 16.9 µM (inactive); GI50 [42]: 13.6 µM (inactive); GI50 [43]: 13.7 µM (inactive); GI50 [44]: 22.8 µM (inactive); GI50 [46]: 14.1 µM (inactive); GI50 [47]: 13.5 µM (inactive); GI50 [48]: 13.4 µM (inactive); GI50 [50]: 13.5 µM (inactive); GI50 [51]: 16.2 µM (inactive); GI50 [52]: 15.7 µM (inactive); GI50 [53]: 13.9 µM (inactive); GI50 [54]: 15.5 µM (inactive)

— ChEMBL document CHEMBL1201862, “PubChem BioAssay data set” (2004)
